Measurements taken from US12624015B2, “JNK inhibitors as anticancer agents” (University of Iowa Research Foundation, priority 2019, dated 2026).
Like-named read-outs stand apart in the source and are kept apart here.

Tested on: A549 adenocarcinoma cell line
Assay: In vitro antitumor screening, MTS assay
Type: cell-based
Conditions: Homo sapiens
Protocol: The synthesized derivatives were tested for their antitumor activity adopting MTS assay against A549 adenocarcinoma cell line following the reported assay method In Riss et al. Results are shown in Table 2.

[1] = A549 cell line, read-out: IC50, MTS assay against A549 cell line
[2] = A549 adenocarcinoma cell line, Table 2, read-out: IC50

| SMILES | IC50 [1] | IC50 [2] |
| --- | --- | --- |
| N#Cc1c(NC(=O)c2cccc(Br)c2)sc2c1CCCC2 [Compound 4] | 7600 nM |  |
| N#Cc1c(NC(=O)NCc2ccccc2)sc2c1CCCC2 [Compound 11] | 1600 nM | 1600 nM |
| N#Cc1c(NCc2ccc(Br)cc2)sc2c1CCCC2 [Compound 10] | 2700 nM | 2700 nM |
